Laboratory results reported in ChEMBL document CHEMBL1146173, “New pyrimido[5,4-b]indoles and [1]benzothieno[3,2-d]pyrimidines: high affinity ligands for the alpha(1)-adrenoceptor subtypes” (Bioorg Med Chem Lett, 2006).

Columns and labels:
[1] = biological target: T1, Alpha-1B adrenergic receptor (Homo sapiens, UniProt P35368); assay: Displacement of [125I]BE2254 from human cloned adrenergic alpha 1B receptor expressed in HEK293 cells; type: cell-based
T1 sequence (P35368 whole entry): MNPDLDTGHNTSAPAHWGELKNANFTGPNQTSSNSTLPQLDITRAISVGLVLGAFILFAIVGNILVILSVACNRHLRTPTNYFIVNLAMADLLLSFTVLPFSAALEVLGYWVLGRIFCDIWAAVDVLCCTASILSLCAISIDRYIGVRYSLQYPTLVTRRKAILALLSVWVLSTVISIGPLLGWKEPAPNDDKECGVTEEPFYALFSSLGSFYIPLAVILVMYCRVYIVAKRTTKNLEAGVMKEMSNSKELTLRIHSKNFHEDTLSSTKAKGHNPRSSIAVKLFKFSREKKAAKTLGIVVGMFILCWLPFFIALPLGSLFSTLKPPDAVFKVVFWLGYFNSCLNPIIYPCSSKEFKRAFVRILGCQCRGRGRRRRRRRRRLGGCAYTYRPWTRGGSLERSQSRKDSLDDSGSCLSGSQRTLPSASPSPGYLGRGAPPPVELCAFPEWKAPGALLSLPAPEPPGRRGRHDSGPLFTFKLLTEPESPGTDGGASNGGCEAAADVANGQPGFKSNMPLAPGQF

[2] = biological target: T2, Alpha-1D adrenergic receptor (Homo sapiens, UniProt P25100); assay: Displacement of [125I]BE2254 from human cloned adrenergic alpha 1D receptor expressed in HEK293 cells; type: cell-based; settings: for Log Ki: hek293
T2 sequence (P25100 whole entry): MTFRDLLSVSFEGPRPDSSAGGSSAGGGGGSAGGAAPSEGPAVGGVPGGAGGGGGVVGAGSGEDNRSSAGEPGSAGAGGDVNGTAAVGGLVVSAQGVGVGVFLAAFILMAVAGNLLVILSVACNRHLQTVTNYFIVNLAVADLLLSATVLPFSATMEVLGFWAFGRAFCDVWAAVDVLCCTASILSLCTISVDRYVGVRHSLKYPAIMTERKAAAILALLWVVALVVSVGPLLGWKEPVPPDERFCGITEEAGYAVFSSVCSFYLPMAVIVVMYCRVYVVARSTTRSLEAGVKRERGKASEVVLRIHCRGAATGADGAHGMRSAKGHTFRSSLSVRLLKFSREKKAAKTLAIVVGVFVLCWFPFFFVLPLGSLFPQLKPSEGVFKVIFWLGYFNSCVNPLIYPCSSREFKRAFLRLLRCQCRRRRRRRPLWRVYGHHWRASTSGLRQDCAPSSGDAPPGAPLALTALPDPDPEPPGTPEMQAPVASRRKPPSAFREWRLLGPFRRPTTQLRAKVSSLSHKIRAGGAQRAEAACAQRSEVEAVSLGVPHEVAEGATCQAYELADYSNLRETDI

[3] = biological target: T3, Alpha-1A adrenergic receptor (Homo sapiens, UniProt P35348); assay: Displacement of [125I]BE2254 from human cloned adrenergic alpha 1A receptor expressed in HEK293 cells; type: cell-based
T3 sequence (P35348 whole entry): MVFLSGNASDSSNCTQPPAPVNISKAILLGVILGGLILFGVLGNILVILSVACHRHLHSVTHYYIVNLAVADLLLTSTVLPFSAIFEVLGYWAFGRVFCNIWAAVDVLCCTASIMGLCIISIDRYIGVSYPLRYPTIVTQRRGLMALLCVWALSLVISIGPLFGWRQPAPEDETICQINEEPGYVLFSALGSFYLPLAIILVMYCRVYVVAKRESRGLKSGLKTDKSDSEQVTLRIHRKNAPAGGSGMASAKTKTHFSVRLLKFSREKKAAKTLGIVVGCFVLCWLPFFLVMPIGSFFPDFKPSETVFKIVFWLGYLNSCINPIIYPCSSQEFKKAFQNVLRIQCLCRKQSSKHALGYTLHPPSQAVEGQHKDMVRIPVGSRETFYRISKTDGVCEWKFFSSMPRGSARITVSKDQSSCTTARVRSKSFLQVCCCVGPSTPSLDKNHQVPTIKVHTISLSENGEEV

[4] = biological target: T4, Alpha-1A adrenergic receptor (Rattus norvegicus) (UniProt P43140); assay: Antagonist activity at adrenergic alpha 1A receptor in rat prostatic vas deferens; type: functional, tissue-based
T4 sequence (whole entry): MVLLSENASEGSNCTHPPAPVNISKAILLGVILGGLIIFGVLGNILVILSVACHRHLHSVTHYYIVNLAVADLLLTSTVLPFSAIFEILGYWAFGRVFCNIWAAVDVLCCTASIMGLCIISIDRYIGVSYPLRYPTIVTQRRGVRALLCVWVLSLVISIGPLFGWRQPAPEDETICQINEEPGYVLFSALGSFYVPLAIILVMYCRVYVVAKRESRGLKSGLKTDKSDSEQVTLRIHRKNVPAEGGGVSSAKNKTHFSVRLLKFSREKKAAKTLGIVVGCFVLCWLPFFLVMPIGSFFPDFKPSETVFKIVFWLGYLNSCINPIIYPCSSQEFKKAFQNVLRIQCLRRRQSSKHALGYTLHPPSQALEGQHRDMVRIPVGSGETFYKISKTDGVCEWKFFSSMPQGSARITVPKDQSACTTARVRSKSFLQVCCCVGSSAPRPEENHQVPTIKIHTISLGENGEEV

[5] = biological target: T5, Alpha-1B adrenergic receptor (Rattus norvegicus) (UniProt P15823); assay: Antagonist activity at adrenergic alpha 1B receptor in rat spleen; type: functional, tissue-based
T5 sequence (whole entry): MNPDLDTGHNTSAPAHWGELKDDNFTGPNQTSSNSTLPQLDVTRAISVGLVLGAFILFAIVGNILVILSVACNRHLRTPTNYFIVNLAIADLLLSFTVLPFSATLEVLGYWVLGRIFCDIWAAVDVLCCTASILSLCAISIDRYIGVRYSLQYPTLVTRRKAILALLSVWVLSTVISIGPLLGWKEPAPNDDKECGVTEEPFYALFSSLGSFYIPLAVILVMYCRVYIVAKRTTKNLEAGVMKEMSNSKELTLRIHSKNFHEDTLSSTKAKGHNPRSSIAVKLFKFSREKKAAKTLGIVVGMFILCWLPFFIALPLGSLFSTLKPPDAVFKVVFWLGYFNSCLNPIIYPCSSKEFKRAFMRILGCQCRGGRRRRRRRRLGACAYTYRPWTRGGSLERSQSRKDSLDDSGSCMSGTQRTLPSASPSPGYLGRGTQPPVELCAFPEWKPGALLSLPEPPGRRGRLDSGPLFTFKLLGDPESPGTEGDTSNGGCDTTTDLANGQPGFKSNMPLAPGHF

[6] = biological target: T6, Alpha-1D adrenergic receptor (Rattus norvegicus) (UniProt P23944); assay: Antagonist activity at adrenergic alpha 1D receptor in rat thoracic aorta; type: functional, tissue-based
T6 sequence (whole entry): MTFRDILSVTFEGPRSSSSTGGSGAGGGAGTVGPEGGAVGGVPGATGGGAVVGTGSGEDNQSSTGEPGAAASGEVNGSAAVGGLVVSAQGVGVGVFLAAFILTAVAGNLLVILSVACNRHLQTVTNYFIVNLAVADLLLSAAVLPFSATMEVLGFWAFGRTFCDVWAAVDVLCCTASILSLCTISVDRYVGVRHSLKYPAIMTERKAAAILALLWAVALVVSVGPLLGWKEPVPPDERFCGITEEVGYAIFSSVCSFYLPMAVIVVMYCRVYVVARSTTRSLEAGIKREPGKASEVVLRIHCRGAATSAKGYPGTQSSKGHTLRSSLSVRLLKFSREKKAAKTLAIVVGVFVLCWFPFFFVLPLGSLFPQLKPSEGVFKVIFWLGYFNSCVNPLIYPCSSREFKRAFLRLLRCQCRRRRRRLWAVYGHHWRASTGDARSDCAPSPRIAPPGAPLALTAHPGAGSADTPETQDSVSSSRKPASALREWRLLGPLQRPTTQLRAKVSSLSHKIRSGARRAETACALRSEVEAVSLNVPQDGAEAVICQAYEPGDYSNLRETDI

SMILES | Ki [1] | Ki [2] | Ki [3] | pKb [4] | pKb [5] | pKb [6] | Log Ki [2] | Log Ki ([3]; hek293)
O=c1[nH]c2c(sc3ccccc32)c(=O)n1CCN1CCN(c2ccc(Cl)c(Cl)c2)CC1 | 19100 nM | 309 nM | 4270 nM | – | – | – | – | –
COc1ccccc1N1CCN(CCn2c(C)nc3c(sc4ccccc43)c2=O)CC1 | 17.4 nM | 0.398 nM | 1.48 nM | 8.65 | 7.63 | 8.98 | – | –
Cn1c(=O)n(CCN2CCN(c3ccc(Cl)c(Cl)c3)CC2)c(=O)c2c1c1ccccc1n2C | 603 nM | 437 nM | 182 nM | – | – | – | – | –
COc1ccc(Cl)cc1N1CCN(CCn2c(C)nc3c(sc4ccccc43)c2=O)CC1 | 17.4 nM | 0.832 nM | 3.47 nM | 7.52 | 8.91 | 7.57 | – | –
COc1ccccc1N1CCN(CCn2c(C)nc3c4ccccc4nc-3c2O)CC1 | – | – | – | 8.53 | 9.73 | 9.24 | -9.39 | -8.52
COc1ccccc1N1CCN(CCn2c(=O)[nH]c3c(sc4ccccc43)c2=O)CC1 | 8.91 nM | 1.26 nM | 3.31 nM | 8.61 | 8.44 | 8.89 | – | –
COc1ccccc1N1CCN(CCn2c(=O)[nH]c3c([nH]c4ccccc43)c2=O)CC1 | – | – | 0.288 nM | 8.46 | 8.67 | 8.71 | -9.44 | –
COc1ccc(Cl)cc1N1CCN(CCn2c(C)nc3c([nH]c4ccccc43)c2=O)CC1 | 4.47 nM | 0.166 nM | 1.32 nM | 7.6 | 8.68 | 8.39 | – | –
COc1ccc(Cl)cc1N1CCN(CCn2c(=O)[nH]c3c([nH]c4ccccc43)c2=O)CC1 | 10.7 nM | 1.55 nM | 8.32 nM | – | – | – | – | –
COc1ccc(Cl)cc1N1CCN(CCn2c(=O)[nH]c3c(sc4ccccc43)c2=O)CC1 | 91.2 nM | 13.5 nM | 53.7 nM | – | – | – | – | –
Cc1nc2c([nH]c3ccccc32)c(=O)n1CCN1CCN(c2ccc(Cl)c(Cl)c2)CC1 | 83.2 nM | 7.41 nM | 30.2 nM | – | – | – | – | –
